ChEMBL document CHEMBL1201862, “PubChem BioAssay data set” (2004)
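These data come from cells grown in 96-well plates and exposed to compound for 48 hours at five concentrations. GI50: concentration for 50% inhibition of growth.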 Calls of active or inactive are those of the source. Rule as the data show it: active = GI50 up to about 1.1 µM and inactive = higher.

What was measured:
Experiment in all cases: growth of human tumour cells (NCI), 48 h
KM-20L2 = tested on: KM-20L2
HCT-116 = tested on: HCT-116
SW-620 = tested on: SW-620
M14 = tested on: M14
HOP-62 = tested on: HOP-62
EKVX = tested on: EKVX
SR = tested on: SR
OVCAR-5 = tested on: OVCAR-5
OVCAR-8 = tested on: OVCAR-8
SNB-19 = tested on: SNB-19
A549 = tested on: A549
CCRF-CEM = tested on: CCRF-CEM
LOX IMVI = tested on: LOX IMVI
NCI-H23 = tested on: NCI-H23
SN12C = tested on: SN12C
SNB-75 = tested on: SNB-75
HT-29 = tested on: HT-29

| Compound | GI50 (KM-20L2) | GI50 (HCT-116) | GI50 (SW-620) | GI50 (M14) | GI50 (HOP-62) | GI50 (EKVX) | GI50 (SR) | GI50 (OVCAR-5) | GI50 (OVCAR-8) | GI50 (SNB-19) | GI50 (A549) | GI50 (CCRF-CEM) | GI50 (LOX IMVI) | GI50 (NCI-H23) | GI50 (SN12C) | GI50 (SNB-75) | GI50 (HT-29) |
| --- | --- | --- | --- | --- | --- | --- | --- | --- | --- | --- | --- | --- | --- | --- | --- | --- | --- |
| CCOC(=O)c1ccn2c(c1)c(C#N)c1nc3ccccc3nc12 | 71.9 µM (inactive) | 46.8 µM (inactive) | 50 µM (inactive) | > 100 µM (inactive) | > 100 µM (inactive) | 70.6 µM (inactive) | 32.6 µM (inactive) | > 100 µM (inactive) | 32.1 µM (inactive) | 61 µM (inactive) | 50.1 µM (inactive) | 18.5 µM (inactive) | 29.2 µM (inactive) | 37.2 µM (inactive) | 83.8 µM (inactive) | 13.3 µM (inactive) |  |
| CC(=O)OC1CC2C(C)(C)C(=O)C=C[C@]2(C)C2CCC3(C)C(=CC(=O)C3c3ccoc3)[C@]12C (some centres not stated) | 14.7 µM (inactive) | 11.6 µM (inactive) | 10.5 µM (inactive) | 21 µM (inactive) | 16.3 µM (inactive) | 15.7 µM (inactive) |  | 22.4 µM (inactive) | 16.7 µM (inactive) | 15.6 µM (inactive) | 15.1 µM (inactive) | 8.47 µM (inactive) | 14.8 µM (inactive) | 12.7 µM (inactive) | 16.7 µM (inactive) | 12.5 µM (inactive) | 13.5 µM (inactive) |
| COC(=O)C(=Cc1cc(OC)c(OC)c(OC)c1-c1cc2c(cc1C(C)=O)OCO2)C(=O)OC | 34.3 µM (inactive) | 32.2 µM (inactive) | 46.1 µM (inactive) |  | 36.8 µM (inactive) | 72.8 µM (inactive) | 50.4 µM (inactive) | 43 µM (inactive) | 59 µM (inactive) | 39 µM (inactive) | 55.6 µM (inactive) | 30.6 µM (inactive) | 30.8 µM (inactive) | 34.7 µM (inactive) | 27.7 µM (inactive) |  | 40.6 µM (inactive) |
| CC(=O)NNc1nc(C)c(C(=O)NNC(=O)C(=O)Nc2c(C)cccc2C(C)C)s1 | > 100 µM (inactive) | 84.1 µM (inactive) | 55.3 µM (inactive) | > 100 µM (inactive) | > 100 µM (inactive) | > 100 µM (inactive) | 40 µM (inactive) | > 100 µM (inactive) | 94.2 µM (inactive) | > 100 µM (inactive) | 61 µM (inactive) | 34.5 µM (inactive) | 55.5 µM (inactive) | > 100 µM (inactive) | > 100 µM (inactive) |  | > 100 µM (inactive) |
| CC(=O)Oc1cc2c(cc1OC(C)=O)OCC(c1ccc(C)cc1)C2 (configuration not stated) | 25.1 µM (inactive) | 20.7 µM (inactive) | 19.5 µM (inactive) |  | 20.5 µM (inactive) | 23.4 µM (inactive) |  | 33.5 µM (inactive) | 26.8 µM (inactive) | 31.4 µM (inactive) | 16 µM (inactive) | 4.07 µM (inactive) | 18.7 µM (inactive) | 15.9 µM (inactive) | 18.1 µM (inactive) | 9.42 µM (inactive) | 29.2 µM (inactive) |
| CCOc1ccc(/N=N/c2ccc3oc(=O)c(/C(C)=N\NC(=O)CC(=O)Nc4ccc(Cl)cc4)cc3c2)cc1 | > 100 µM (inactive) | 16.4 µM (inactive) | 17.8 µM (inactive) |  | 17.6 µM (inactive) | 8.36 µM (inactive) | 3.47 µM (inactive) | 99.5 µM (inactive) | 16.1 µM (inactive) | 27.3 µM (inactive) | 20.7 µM (inactive) | 0.337 µM (active) | 13.2 µM (inactive) | 18.7 µM (inactive) | 26.1 µM (inactive) |  |  |
| c1cc2c3c(c1)c1cc4c(cc1c[n+]3CC2)OCO4 [ANHYDROLYCORINIUM CHLORIDE] | 3.56 µM (inactive) | 2.81 µM (inactive) | 1.9 µM (inactive) |  | 3.83 µM (inactive) | 3.4 µM (inactive) |  | 2.85 µM (inactive) | 1.33 µM (inactive) | 1.17 µM (inactive) | 1.15 µM (inactive) | 3.35 µM (inactive) | 25.5 µM (inactive) | 3.59 µM (inactive) | 1.99 µM (inactive) | 2.44 µM (inactive) | 7.4 µM (inactive) |
| C[C@]12CCC(=O)C=C1CC[C@@H]1[C@@H]2[C@@H](O)C[C@@]2(C)[C@H]1CC[C@]2(O)C(=O)COC(=O)CCC1CCCC1 [HYDROCORTISONE CYPIONATE] | > 100 µM (inactive) | > 100 µM (inactive) | > 100 µM (inactive) |  |  | > 100 µM (inactive) | > 100 µM (inactive) | 0.0881 µM (active) | > 100 µM (inactive) | > 100 µM (inactive) | > 100 µM (inactive) | 95.9 µM (inactive) | > 100 µM (inactive) | > 100 µM (inactive) | 0.693 µM (active) | > 100 µM (inactive) | > 100 µM (inactive) |
